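Step 1: Grow cells in 96-well plates. Step 2: Expose to compound for 48 hours at 5 concentrations. Step 3: Interpolate endpoints linearly; if unreached, use highest concentration. GI50 = concentration required for 50% inhibition of growth.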 Activity calls are given as the source filed them. Cut-off read from the data, not from the text of the source: active = GI50 up to about 1.1 µM and inactive = higher.
Key:
Test in all cases: NCI-60 cell line screen, 48 h
KM12 = tested on: KM12
U-251 = tested on: U-251
SNB-19 = tested on: SNB-19
CCRF-CEM = tested on: CCRF-CEM
M14 = tested on: M14
SW-620 = tested on: SW-620
MOLT-4 = tested on: MOLT-4
CAKI-1 = tested on: CAKI-1
SF-268 = tested on: SF-268
HCT-15 = tested on: HCT-15
UACC-62 = tested on: UACC-62
HCT-116 = tested on: HCT-116
HT-29 = tested on: HT-29
MCF7 = tested on: MCF7

Row | SMILES | GI50 (KM12) | GI50 (U-251) | GI50 (SNB-19) | GI50 (CCRF-CEM) | GI50 (M14) | GI50 (SW-620) | GI50 (MOLT-4) | GI50 (CAKI-1) | GI50 (SF-268) | GI50 (HCT-15) | GI50 (UACC-62) | GI50 (HCT-116) | GI50 (HT-29) | GI50 (MCF7)
1 | Fc1cccc(Cl)c1C1SCc2nc3ccccc3n21 (stereo not drawn) | 24.8 µM (inactive) | 27.2 µM (inactive) | 46.1 µM (inactive) | 25.3 µM (inactive) | 34 µM (inactive) | 37.2 µM (inactive) | 18.8 µM (inactive) | 27.1 µM (inactive) | 50.5 µM (inactive) | 31.3 µM | 15.7 µM (inactive) | 22.4 µM (inactive) | 25.5 µM (inactive) | –
2 | CCCCN(CCCC)C(=O)C(=O)C(C(=O)c1ccc(OC)cc1)c1ccc(OC)cc1 (stereo not drawn) | > 100 µM (inactive) | > 100 µM (inactive) | > 100 µM (inactive) | > 100 µM (inactive) | 92.3 µM (inactive) | > 100 µM (inactive) | > 100 µM (inactive) | > 100 µM (inactive) | > 100 µM (inactive) | > 100 µM | 56.4 µM (inactive) | > 100 µM (inactive) | > 100 µM (inactive) | –
3 | COC(=O)C(=O)C(C(=O)C(=O)Nc1ccc([N+](=O)[O-])cc1[N+](=O)[O-])c1nc2ccc([N+](=O)[O-])cc2nc1O (stereo not drawn) | > 100 µM (inactive) | > 100 µM (inactive) | > 100 µM (inactive) | > 100 µM (inactive) | > 100 µM (inactive) | > 100 µM (inactive) | > 100 µM (inactive) | > 100 µM (inactive) | > 100 µM (inactive) | > 100 µM | > 100 µM (inactive) | > 100 µM (inactive) | > 100 µM (inactive) | –
4 | CN(C(=O)c1ccco1)C(=S)N1CCN(c2ccccn2)CC1 | > 100 µM (inactive) | > 100 µM (inactive) | > 100 µM (inactive) | > 100 µM (inactive) | > 100 µM (inactive) | > 100 µM (inactive) | > 100 µM (inactive) | > 100 µM (inactive) | > 100 µM (inactive) | > 100 µM | > 100 µM (inactive) | > 100 µM (inactive) | > 100 µM (inactive) | –
5 | COc1ccc(Sc2ccccc2[N+](=O)[O-])cc1 | 6.44 µM (inactive) | 10.4 µM (inactive) | > 100 µM (inactive) | 22.8 µM (inactive) | 4.04 µM (inactive) | 3.65 µM (inactive) | 16.1 µM (inactive) | – | 72.8 µM (inactive) | 5.86 µM | 7.87 µM (inactive) | 7.64 µM (inactive) | 4.62 µM (inactive) | –
6 | CN(C(=O)c1ccc(Cl)cc1)C(=S)N1CCN(c2ccccn2)CC1 | > 100 µM (inactive) | > 100 µM (inactive) | > 100 µM (inactive) | > 100 µM (inactive) | > 100 µM (inactive) | > 100 µM (inactive) | > 100 µM (inactive) | > 100 µM (inactive) | > 100 µM (inactive) | > 100 µM | > 100 µM (inactive) | > 100 µM (inactive) | > 100 µM (inactive) | –
7 | COc1cc(OC)c2c(O)cc(CC(C)O)cc2c1 (stereo not drawn) | > 100 µM (inactive) | 91.4 µM (inactive) | > 100 µM (inactive) | > 100 µM (inactive) | > 100 µM (inactive) | > 100 µM (inactive) | > 100 µM (inactive) | > 100 µM (inactive) | > 100 µM (inactive) | > 100 µM | > 100 µM (inactive) | > 100 µM (inactive) | 92.5 µM (inactive) | –
8 | CN1CCCS/C1=C1/SC(=S)N(c2ccccc2)C1=O | > 100 µM (inactive) | > 100 µM (inactive) | > 100 µM (inactive) | > 100 µM (inactive) | > 100 µM (inactive) | > 100 µM (inactive) | > 100 µM (inactive) | > 100 µM (inactive) | > 100 µM (inactive) | > 100 µM | > 100 µM (inactive) | > 100 µM (inactive) | > 100 µM (inactive) | –
9 | NC(=O)c1ncn(Cc2ccccc2)c1CNC(N)=S | > 100 µM (inactive) | > 100 µM (inactive) | > 100 µM (inactive) | > 100 µM (inactive) | > 100 µM (inactive) | > 100 µM (inactive) | > 100 µM (inactive) | – | > 100 µM (inactive) | > 100 µM | > 100 µM (inactive) | – | > 100 µM (inactive) | –
10 | O=Cc1cc2c(cc1-c1cc3c(cc1C=O)OCO3)OCO2 | 83 µM (inactive) | > 100 µM (inactive) | 87.9 µM (inactive) | 23.4 µM (inactive) | > 100 µM (inactive) | 55.8 µM (inactive) | 45.5 µM (inactive) | 66.2 µM (inactive) | > 100 µM (inactive) | 70.3 µM | > 100 µM (inactive) | 58.7 µM (inactive) | 90.2 µM (inactive) | –
11 | O=C(CCC(=O)Nc1ccc(Cl)c(Cl)c1)CC(=O)c1ccc2ccccc2c1 | 82 µM (inactive) | > 100 µM (inactive) | > 100 µM (inactive) | > 100 µM (inactive) | > 100 µM (inactive) | > 100 µM (inactive) | 48.3 µM (inactive) | 83 µM (inactive) | > 100 µM (inactive) | 39.8 µM | 17.2 µM (inactive) | > 100 µM (inactive) | 93.8 µM (inactive) | –
12 | C/C(=N\NC(=O)C[N+](C)(C)C)c1sc(-c2cccnc2)nc1C | > 100 µM (inactive) | > 100 µM (inactive) | – | > 100 µM (inactive) | > 100 µM (inactive) | > 100 µM (inactive) | > 100 µM (inactive) | – | > 100 µM (inactive) | – | > 100 µM (inactive) | > 100 µM (inactive) | > 100 µM (inactive) | –
13 | N=C(NC(=N)Nc1ccc(S(=O)(=O)Nc2cnc3ccccc3n2)cc1)Nc1ccc(Br)cc1 | > 100 µM (inactive) | > 100 µM (inactive) | > 100 µM (inactive) | > 100 µM (inactive) | > 100 µM (inactive) | > 100 µM (inactive) | > 100 µM (inactive) | > 100 µM (inactive) | > 100 µM (inactive) | > 100 µM | > 100 µM (inactive) | – | > 100 µM (inactive) | –
14 | COc1ccc(C(c2ccccc2)(c2ccc(OC)cc2)N2C(=O)NC3C(CCCCC(=O)NCCCCCCOP(OCCC#N)N(C(C)C)C(C)C)SCC32)cc1 (stereo not drawn) | 16.2 µM (inactive) | 15 µM (inactive) | – | 9.12 µM (inactive) | 18.4 µM (inactive) | 19.8 µM (inactive) | 7.57 µM (inactive) | – | 15.2 µM (inactive) | 18 µM | 10.9 µM (inactive) | 12 µM (inactive) | 14.6 µM (inactive) | –
15 | Cn1cc2ccccc2c1-c1nc(F)nc(Nc2ccc(N)cc2)n1 | 14 µM (inactive) | 8.28 µM (inactive) | 29.3 µM (inactive) | 12.7 µM (inactive) | 13.6 µM (inactive) | 14.8 µM (inactive) | 17.5 µM (inactive) | 15 µM (inactive) | 20 µM (inactive) | 4.97 µM | – | 15.5 µM (inactive) | 21.5 µM (inactive) | –
16 | CC(C)(C)C(=O)OCC1CCC(n2cnc3c(=O)[nH]c(N)nc32)O1 (stereo not drawn) | > 100 µM (inactive) | > 100 µM (inactive) | > 100 µM (inactive) | > 100 µM (inactive) | > 100 µM (inactive) | > 100 µM (inactive) | – | > 100 µM (inactive) | > 100 µM (inactive) | > 100 µM | > 100 µM (inactive) | > 100 µM (inactive) | > 100 µM (inactive) | –
17 | O=C(CC(=O)N1N=C(c2ccccc2)C(/N=N/c2ccccc2Cl)C1=O)Nc1ccccc1Cl (stereo not drawn) | 14.1 µM (inactive) | 32.1 µM (inactive) | 40.4 µM (inactive) | – | 37.9 µM (inactive) | 29.9 µM (inactive) | 28.6 µM (inactive) | 30.8 µM (inactive) | 31.5 µM (inactive) | 40.1 µM | 37.7 µM (inactive) | 25.9 µM (inactive) | 19.9 µM (inactive) | –
18 | CC1=C2N3C[C@@H](n4c(=O)n(C)c(=O)n43)C23CCC1n1c(=O)n(C)c(=O)n13 | > 100 µM (inactive) | – | > 100 µM (inactive) | > 100 µM (inactive) | > 100 µM (inactive) | 21.9 µM (inactive) | > 100 µM (inactive) | > 100 µM (inactive) | > 100 µM (inactive) | 24.7 µM | > 100 µM (inactive) | – | > 100 µM (inactive) | –
19 | COc1cccc2c1C(=O)c1c(O)c3c(c(O)c1C2=O)C[C@](O)(C(=O)CO)CC3OC1CC(N)C(OC2CCCCO2)C(C)O1 (stereo partly drawn) | 0.375 µM (active) | 0.0658 µM (active) | 0.0948 µM (active) | < 0.0375 µM (active) | – | 0.0598 µM (active) | < 0.01 µM (active) | 0.0353 µM (active) | 0.293 µM (active) | 0.47 µM | 0.208 µM (active) | 0.0659 µM (active) | 0.229 µM (active) | 0.0311 µM (active)
20 | COc1cccc2c1C(=O)c1c(O)c3c(c(O)c1C2=O)C[C@@](O)(C(=O)CO)CC3OC1CC(NCCCC(OC(C)=O)OC(C)=O)C(O)C(C)O1 (stereo partly drawn) | 0.00279 µM (active) | 0.00308 µM (active) | 0.00246 µM (active) | 0.00212 µM (active) | 0.000867 µM (active) | 0.00202 µM (active) | 0.00224 µM (active) | 0.00296 µM (active) | 0.00305 µM (active) | 0.00225 µM | 0.000861 µM (active) | – | 0.000711 µM (active) | –
21 | Nc1ncnc2c(C3OC(CO)C(O)C3O)n[nH]c12 (stereo not drawn) | 0.38 µM (active) | 2.53 µM (inactive) | 0.211 µM (active) | – | – | 0.106 µM (active) | – | – | – | – | 1.4 µM (inactive) | 0.0767 µM (active) | 0.0895 µM (active) | 0.0698 µM (active)
22 | CN(C)c1ccc(C(=C2C=CC(=[N+](C)C)C=C2)c2ccc(N(C)C)cc2)cc1 [GENTIAN VIOLET] | 0.0942 µM (active) | 0.0354 µM (active) | 0.347 µM (active) | 0.102 µM (active) | 0.163 µM (active) | – | 0.144 µM (active) | 0.34 µM (active) | 0.133 µM (active) | 0.334 µM | 0.143 µM (active) | – | – | –

Source: ChEMBL document CHEMBL1201862, “PubChem BioAssay data set” (2004)
